Measurements from US12180146B2, “Antihypertensive polyol compound and derivative thereof” (TAO PHARMACEUTICAL (SUZHOU) CO., LTD, priority 2020, dated 2024).

Tested on: spontaneously hypertensive rats (SHR)
Experiment: Antihypertensive activity test: blood pressure and heart rate of spontaneously hypertensive rats (SHR)
Type: in vivo, rat
Settings: 200 mg/kg
Protocol: Tested Drugs: Compounds of the Invention. The dosage of all compound was uniformly set to 200 mg/kg.
In the test, changes in the blood pressure before and after the administration were detected, and compared with the basic value, a reduction of SBP ≥20 mmHg after administration was judged as effective antihypertensive effects; and at the same time, changes in the heart rate before and after the administration were detected.
Heart rate was expressed as mean±standard deviation (x±s). The changes of heart rate before and after the administration were compared by using Two-sample equal variance paired t test, and P<0.05 was regarded as the standard of statistically significant difference.

[1] = after administration (6 h M ± SD), n = 8
[2] = before administration, M ± SD, n = 8

| Structure (SMILES) | SBP Difference before and after administration, 1 h (1 h) [mmHg] | SHR blood pressure (SBP), time after administration 1 h (1 h, n = 8) [mmHg] | SBP Difference before and after administration, 2 h (2 h) [mmHg] | SHR blood pressure (SBP), time after administration 2 h (2 h, n = 8) [mmHg] | SBP Difference before and after administration, 3 h (3 h) [mmHg] | SHR blood pressure (SBP), time after administration 3 h (3 h, n = 8) [mmHg] | SBP Difference before and after administration, 4 h (4 h) [mmHg] | SHR blood pressure (SBP), time after administration 4 h (4 h, n = 8) [mmHg] | SBP Difference before and after administration, 5 h (5 h) [mmHg] | SHR blood pressure (SBP), time after administration 5 h (5 h, n = 8) [mmHg] | SBP Difference before and after administration, 6 h (6 h) [mmHg] | SHR blood pressure (SBP), time after administration 6 h (6 h, n = 8) [mmHg] | further results |
| --- | --- | --- | --- | --- | --- | --- | --- | --- | --- | --- | --- | --- | --- |
| CCc1cccc([C@@H](O)CO)c1 [Compound 1-1] | 14 | 176 ± 12.4 | 22 | 168 ± 12.0 | 29 | 161 ± 13.1 | 24 | 166 ± 11.4 | 20 | 170 ± 11.9 | 14 | 186 ± 10.1 | SBP Difference before and after administration, 0 h (0 h): 0 mmHg |
| CCc1cccc([C@H](O)CO)c1 [Compound 1-2] | 10 | 176 ± 6.39 | 22 | 164 ± 4.50 | 25 | 161 ± 9.15 | 23 | 163 ± 13.7 | 12 | 174 ± 15.9 | 8 | 178 ± 8.78 |  |
| [2H]OCC(O[2H])c1cccc(CC)c1 (centres unmarked) [Compound 1-3] | 18 | 168 ± 6.39 | 21 | 165 ± 4.50 | 23 | 163 ± 9.15 | 23 | 163 ± 13.7 | 22 | 164 ± 15.9 | 18 | 168 ± 8.78 |  |
| OCC(O)c1ccccc1 (centres unmarked) [Compound 2] | 16 | 169 ± 6.39 | 18 | 167 ± 4.50 | 19 | 166 ± 9.15 | 19 | 166 ± 13.7 | 20 | 165 ± 15.3 | 15 | 170 ± 8.77 |  |
| Cc1cccc(C(O)CO)c1 (centres unmarked) [Compound 3] | 18 | 180 ± 11.6 | 10 | 178 ± 10.9 | 11 | 177 ± 13.9 | 8 | 180 ± 15.80 | 2 | 186 ± 16.0 | 2 | 186 ± 17.7 |  |
| CCc1ccc(C(O)CO)cc1 (centres unmarked) [Compound 4] | 3 | 182 ± 11.6 | 7 | 178 ± 10.8 | 8 | 177 ± 10.9 | 5 | 180 ± 15.80 | 1 | 184 ± 16.0 | −1 | 186 ± 17.7 | SHR heart rate, time after administration 0 h (0 h, N = 8): 345 ± 42.2 beat/min; Heart rate Difference before and after administration, 1 h (1 h): 2 beat/min; SHR heart rate, time after administration 1 h (1 h, N = 8): 347 ± 42.6 beat/min; Heart rate Difference before and after administration, 2 h (2 h): 4 beat/min; SHR heart rate, time after administration 2 h (2 h, N = 8): 349 ± 49.7 beat/min; Heart rate Difference before and after administration, 3 h (3 h): 4 beat/min; SHR heart rate, time after administration 3 h (3 h, N = 8): 349 ± 48.3 beat/min; Heart rate Difference before and after administration, 4 h (4 h): 0 beat/min; SHR heart rate, time after administration 4 h (4 h, N = 8): 345 ± 45.1 beat/min; Heart rate Difference before and after administration, 5 h (5 h): −6 beat/min; SHR heart rate, time after administration 5 h (5 h, N = 8): 338 ± 39.7 beat/min; Heart rate Difference before and after administration, 6 h (6 h): −4 beat/min; SHR heart rate, time after administration 6 h (6 h, N = 8): 341 ± 46.9 beat/min; Blood pressure (SBP, mmHg) After administration [1]: 181 ± 13.2 mmHg; Heart rate (beat/min) After administration [1]: 346 ± 43.4 beat/min; Heart rate Difference (beat/min) (after administration minus baseline (6 h)): 1 beat/min; Blood pressure Difference mmHg (baseline minus after administration (6 h)): 3 mmHg; Blood pressure (SBP, mmHg) Baseline [2]: 184 ± 14.7 mmHg; Heart rate (beat/min) Baseline [2]: 345 ± 42.2 beat/min |
| OCC(O)c1cccc(Br)c1 (centres unmarked) [Compound 6] | 5 | 184 ± 10.9 | 9 | 180 ± 12.4 | 9 | 180 ± 7.80 | 6 | 183 ± 6.56 | 7 | 182 ± 8.29 | 1 | 188 ± 13.2 |  |
| CC(C)c1cccc(C(O)CO)c1 (centres unmarked) [Compound 9] | 2 | 192 ± 11.6 | 6 | 188 ± 12.1 | 17 | 177 ± 12.3 | 14 | 180 ± 12.85 | 10 | 184 ± 16.0 | 8 | 186 ± 17.8 |  |
| CC(=O)c1ccc(C(O)CO)cc1 (centres unmarked) [Compound 10] | 6 | 186 ± 9.54 | 10 | 182 ± 7.36 | 13 | 179 ± 4.07 | 9 | 183 ± 7.65 | 7 | 185 ± 5.64 | 2 | 190 ± 6.54 |  |
